Measurements: US12286411B2, “Indane derivatives for use in the treatment of bacterial infection” (priority 2018, dated 2025)

What was measured:
[1] = molecular target: T1, LasB elastase (dialysed supernatant from P. aeruginosa PAO1) (Pseudomonas aeruginosa, UniProt P14756); test: Elastin assay to determine % inhibition (Elastin Congo-Red, dialysed PAO1 supernatant); assay type: biochemical; conditions: read-out: Elastin hydrolysis % inhibition @ 50/25 μM inhibitor concentration
T1 construct: Culture supernatants are recovered by centrifugation and filtrated through a 0.22 μM filter; endogenous in cells; host or cells: P. aeruginosa PAO1 culture supernatant, dialysed
Protocol: Experiments were therefore conducted (1) to measure the potency of inhibition of compounds of the invention against purified Pseudomonas aeruginosa LasB enzyme and also experiments were conducted (2) to measure the ability of compounds of the invention to inhibit LasB-catalysed elastin degradation. The first assay uses a commercial fluorescent synthetic peptide and purified LasB enzyme. The LasB hydrolysis kinetics are measured allowing the determination of the IC50 and Ki of the inhibitors; the second is a more physiological assay using dialysed Pseudomonas aeruginosa supernatant as source of enzyme, plus its natural substrate Elastin. It is an “end point assay” that determines the percentage of LasB inhibition by each compound for one particular time point and inhibitor concentration. Technical details are described below:
The Elastin assay uses as source of enzyme dialysed supernatant from P. aeruginosa PAO1 and the Elastin Congo-Red as substrate. The natural LasB substrate, elastin, is complexed with the congo-red dye (Elastin Congo-Red, ECR). The elastolysis activity from the culture supernatant will degrade elastin and release the congo-red dye into the supernatant. This red dye release can be measured with a spectrophotometer.
Method: To determine LasB elastase activity and assess compound inhibition, an overnight culture of P. aeruginosa strain PA01 is diluted in LB medium. After reaching an ° Dam. of 0.6, this culture is diluted and incubated for additional 18-24 hours in a shaking incubator. Culture supernatants are recovered by centrifugation and filtrated through a […] filter. These supernatants are dialysed (filtration molecules <20 kDa) into a 50 mM Tris-HCl pH 7.4, 2.5 mM CaCl2 solution at 4° C. under agitation for 24 hours. Supernatant dialysed is then mixed volume/volume with the ECR suspension (20 mg/mL of ECR in 100 mM Tris-HCl pH 7.4 buffer supplemented with 1 mM CaCl2) supplemented with Triton X100 (final concentration of 0.01%) in presence of DMSO (positive control) and/or different concentrations of compound (routinely 50 to 1.56 μM). As a negative control, the dialysed supernatant is replaced by Tris-HCl solution (50 mM Tris-HCl pH 7.4, 2.5 mM CaCl2). The mixed reaction is then incubated overnight in a 37° C. shaking incubator. The reaction supernatant is recovered by centrifugation and the release of congo-red is measured by its absorbance at 495 nm (OD495nm).
Percentage inhibition is determined using the following equation: ((OD495nm value of positive control−OD495nm value of negative control)−(OD495nm value of treated supernatant OD495nm value of negative control))/(OD495nm value of positive control−OD495nm value of negative control)×100.

[2] = test system: Pseudomonas aeruginosa (PAO1); test: Mouse model of Pseudomonas aeruginosa lung infection; assay type: in vivo; conditions: mice infected intranasally with wild-type PAO1, compound i.v. 1 h and 2 h post infection, 10 and 30 mg/kg, 24 hours post infection
Protocol: Mice were dosed by intranasal inoculation of PA (PAO1), then scarified after 24 hours. The extent of infection in the lung was quantified by bacterial load (CFU determination, colony forming units) and the levels of proinflammatory IL-1β. Statistical analysis on both readouts were performed by ANOVA with a Dunnett post-test.
Compounds were administered intravenously in a two-dose regimen (1 hour and 2 hours post infection) at two different doses (10 and 30 mg/kg).

T1 sequence (P14756 198-498): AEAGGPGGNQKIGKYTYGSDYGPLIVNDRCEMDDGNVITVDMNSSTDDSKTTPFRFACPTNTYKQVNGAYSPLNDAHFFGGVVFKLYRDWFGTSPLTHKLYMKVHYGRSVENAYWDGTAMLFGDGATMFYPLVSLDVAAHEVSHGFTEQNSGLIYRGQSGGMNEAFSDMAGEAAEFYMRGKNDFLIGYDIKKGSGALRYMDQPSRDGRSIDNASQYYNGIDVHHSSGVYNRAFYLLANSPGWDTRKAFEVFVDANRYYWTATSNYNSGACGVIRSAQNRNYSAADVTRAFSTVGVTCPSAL

O=C(O)CC1(C(=O)NCc2nc3ccc(OCCCO)cc3s2)Cc2ccccc2C1 [Example 1, 2-[2-[[6-(3-hydroxypropoxy)-1,3-benzothiazol-2-yl]methylcarbamoyl]indan-2-yl]acetic acid] was tested, and the inhibition at 25 µM [1] was greater than 75%.

Molecule COc1cc2sc(CNC(=O)C3(CC(=O)[O-])Cc4cc(F)c(F)cc4C3)nc2cc1OCC[N+](C)(C)C [Example 7, 2-[5,6-difluoro-2-[[6-methoxy-5-[2-(trimethylammonio)ethoxy]-1,3-benzothiazol-2-yl]methylcarbamoyl]indan-2-yl]acetate] has an inhibition at 25 µM [1] of 60 to 75%.

With COc1cc2sc(CNC(=O)C3(CC(=O)[O-])Cc4ccccc4C3)nc2cc1OCCOCC[N+](C)(C)C [Example 5, 2-[2-[[6-methoxy-5-[2-[2-(trimethylammonio)ethoxy]ethoxy]-1,3-benzothiazol-2-yl]methylcarbamoyl]indan-2-yl]acetate] the inhibition at 25 µM [1] was 60 to 75%.

COc1cc2sc(CNC(=O)C3(CC(=O)O)Cc4ccccc4C3)nc2cc1OCCCN(C)C [Example 3, 2-[2-[[5-[3-(dimethylamino)propoxy]-6-methoxy-1,3-benzothiazol-2-yl]methylcarbamoyl]indan-2-yl]acetic acid] was tested, and the inhibition at 25 µM [1] was greater than 75%.

COc1cc2sc(CNC(=O)C3(CC(=O)[O-])Cc4cc(F)c(F)cc4C3)nc2cc1OCCOCC[N+](C)(C)C [Example 6, 2-[5,6-difluoro-2-[[6-methoxy-5-[2-[2-(trimethylammonio)ethoxy]ethoxy]-1,3-benzothiazol-2-yl]methylcarbamoyl]indan-2-yl]acetate] gave an inhibition at 25 µM [1] greater than 75%.

CCCOc1ccc2nc(CNC(=O)C3(CC(=O)O)Cc4ccccc4C3)sc2c1 [Example 2, 2-[2-[(6-propoxy-1,3-benzothiazol-2-yl)methylcarbamoyl]indan-2-yl]acetic acid] was tested, and the inhibition at 25 µM [1] was greater than 75%.

In the case of COc1cc2sc(CNC(=O)C3(CC(=O)[O-])Cc4ccccc4C3)nc2cc1OCCC[N+](C)(C)C [Example 4, 2-[2-[[6-methoxy-5-[3-(trimethylammonio)propoxy]-1,3-benzothiazol-2-yl]methylcarbamoyl]indan-2-yl]acetate], the “production and activation of IL-1β in the lung” value ([2]; FIG. 2) is reported as “inhibited the production and activation of IL-1β in mice infected by wild-type PA (PA01) at a similar level than the lasB deleted mutant”, the “extent of infection in the lung (CFU levels)” value ([2]; FIG. 3) is reported as “reduced the extent of infection in the lung to the level of the LasB deleted mutant” and the inhibition at 25 µM [1] is reported as greater than 75%.
